Literature values, collected in US20260283953A1, “FORMULATIONS OF PHOSPHOLIPID CARRIER COMPLEXES” (priority 2024, published 2026).
Read-outs that look alike come from different tables or passages of the source.

Columns and labels:
[1] = in vivo
[2] = natural testosterone
[3] = for testosterone levels: oral 60 mg dose

## O=C(/C=C/C=C/c1ccc2c(c1)OCO2)N1CCCCC1 [Piperine, (2E,4E)-5-(2H-1,3-Benzodioxol-5-yl)-1-(piperidin-1-yl)penta-2,4-dien-1-one]
other
  solubility in water: dissolves poorly in water

## COc1cc(/C=C/C(=O)CC(=O)/C=C/c2ccc(O)c(OC)c2)ccc1O [curcumin]
[1]
  bioavailability: low bioavailability

## C[C@]12CC[C@H]3[C@@H](CCC4=CC(=O)CC[C@@]43C)[C@@H]1CC[C@@H]2O [testosterone, 17β-Hydroxyandrost-4-en-3-one]
[2]
  half-life: under 1 hour
[3]; first pass through the intestines and liver
  absorption and metabolism with oral delivery: well-absorbed but extensively metabolized
[3]; men, doses of less than 200 mg
  inactivation after oral delivery: rapidly and completely inactivated
[3]; men
  testosterone levels: no effect
[3]; men with liver cirrhosis
  testosterone levels: High levels
[3]; prepubertal boys and women
  testosterone levels: measurably increase
[3]; oral, large doses such as 200 mg
  circulating testosterone levels: significant increases
[3]; young women, single 25 mg dose
  oral bioavailability: 3.6±2.5%
